The values that follow come from patent US8350061B2, “Synthetic analogs of bacterial quorum sensors” (priority 2009, dated 2013).

Type in all cases: cell-based
Assay [1] deals with A549 human lung epithelial cells.
Assay [2] concerns Yersinia pestis, Yersinia enterocolitica.
Assay [3] has as its system Yersinia pestis, Yersinia enterocolitica and Yersinis pseudomonas.

On to `CCCC(=[Se])NC1CCOC1=O` (stereo not shown) [(IV), N-(2-oxo-tetrahydro-furan-3-yl)-selenobutyramide], for which, in assay [1], the “infection of cells by Pseudomonas aeruginosa” value is recorded as “prevented the infection of cells” and the viability of cells result was “increase in the viability of cells”. In addition, in assay [2], the biofilm formation entry was “significantly inhibited”. In assay [3], the “viability of biofilm-growing bacteria” value is “significantly inhibited”.
